These results are taken from patent US20260167674A1, “ACE2 […] SEQUENCES” (priority 2023, published 2026).

Test [1] concerns the target SARS-COV-2 RBD (Severe acute respiratory syndrome coronavirus 2, UniProt P0DTC2). In words: biochemical. In kind it is binding.
Test [2] deals with SARS-COV-2 RBD protein with His-tag, purified by recombinant expression in Pichia pastoris (SARS-COV-2), P0DTC2. The experiment in a line: SPR at 25 C; His-tagged RBD captured by anti-His tag, peptide flowed over.

No end group written: not given here.

Broadly, the Kd is the constant that tells how readily two partners part at equilibrium. In test [1], “QEQAQTYLDGYNKTYQDLVYKDNLAQWTLNT [peptide2]” came in with a Kd of 3.55 to 4.09 pM.

Turning to “EENAKTFLNNFNQEAEDLSYQSSLASWNYNT [peptide4]”, in test [1], the Kd fell in the range of 1.26 to 8.16 pM.

EENAKTFLNNFNQEAEDLSYQSSLASWNYNT (modifications not checked) [peptide4 (BAB40431.1:22-52 angiotensin-converting enzyme-related carboxypeptidase [Mus musculus])]: the Kd in test [2] fell in the range of 1.26 to 8.16 pM.

For QEQAQTYLDGYNKTYQDLVYKDNLAQWTLNT (modifications not checked) [peptide2 (WP_072363071.1:30-60 M2 family metallopeptidase [Chitinophaga sancti])], the Kd in test [2] lay within 3.55 to 4.09 pM.
